The source of these data is patent US20250320189A1, “NEW DERIVATIVES FOR TREATING TRPM3 MEDIATED DISORDERS” (Katholieke Universiteit Leuven, priority 2022, published 2025).

A value given as a limit tells only on which side of the number the result lay.

For this test, the target named is T1, mouse TRPM3α2 (mTRPM3) ion channel (Mus musculus, UniProt J9SQF3).
T1 construct: expressed in transfected cells; host or cells: flip-in (Flp-In) HEK293
Briefly: Monitoring the TRPM3 ion channel driven Ca2+ uptake (Fluo-4 AM assay). The class given is cell-based. The note with it: mTRPM3alpha2 overexpressing flip-in HEK293 cells, stimulated with Pregnenolone sulfate (PS) 50 μM. On the procedure:
In order to monitor the inhibition of the mouse TRPM3α2 (mTRPM3) ion channel by the compounds of the invention, a cellular system making use of an mTRPM3alpha2 or hTRPM3 overexpressing cell line (flip-in HEK293) was used. The TRPM3 channel was stimulated/opened with Pregnenolone sulfate (PS) (50 μM) which results in Ca^2+ influx.
For mTRPM3, the intracellular Ca^2+ was measured with a Calcium responsive dye, Fluor-4 AMV ester (Invitrogen). Cells were cultured until a confluence of 80-90%, washed with Versene (Invitrogen) and detached from the surface by a short incubation with 0.05% Trypsin (Invitrogen). The trypsination process was stopped by the addition of complete cell culture medium (DMEM, glutamax, 10% FCS, NEAA,Pen-Strep). Cells were collected and resuspended in Krebs buffer without Calcium at RT.
Prior the cell seeding (±2000 cells/well into a black, 384 well plate (Greiner)) the diluted compound was added in the assay plate, together with the PS dissolved in Krebs buffer containing Calcium. […] Directly after cell addition the plates were read on an Envision fluorescence reader (PerkinElmer) by an Excitation of 485 nm and emission at 535 nm.
Channel inhibition was calculated compared to a non-PS stimulated control versus a condition stimulated with PS (50 μM) with vehicle. The ability of the compounds of the invention to inhibit this activity was determined as: Percentage inhibition=[1−((RFU determined for sample with test compound present−RFU determined for sample with positive control inhibitor) divided by (RFU determined in the presence of vehicle−RFU determined for sample with positive control inhibitor))]*100.
The activities of the Example compounds tested are depicted in the table below. The activity ranges A, B and C refer to IC50 values in the Fluo-4 AM assay as follows: “A”: IC50<1 μM; “B”: 1 μM≤IC50≤20 μM and “C”: IC50>20 μM

T1 sequence (J9SQF3 1-1709 isoform J9SQF3-12): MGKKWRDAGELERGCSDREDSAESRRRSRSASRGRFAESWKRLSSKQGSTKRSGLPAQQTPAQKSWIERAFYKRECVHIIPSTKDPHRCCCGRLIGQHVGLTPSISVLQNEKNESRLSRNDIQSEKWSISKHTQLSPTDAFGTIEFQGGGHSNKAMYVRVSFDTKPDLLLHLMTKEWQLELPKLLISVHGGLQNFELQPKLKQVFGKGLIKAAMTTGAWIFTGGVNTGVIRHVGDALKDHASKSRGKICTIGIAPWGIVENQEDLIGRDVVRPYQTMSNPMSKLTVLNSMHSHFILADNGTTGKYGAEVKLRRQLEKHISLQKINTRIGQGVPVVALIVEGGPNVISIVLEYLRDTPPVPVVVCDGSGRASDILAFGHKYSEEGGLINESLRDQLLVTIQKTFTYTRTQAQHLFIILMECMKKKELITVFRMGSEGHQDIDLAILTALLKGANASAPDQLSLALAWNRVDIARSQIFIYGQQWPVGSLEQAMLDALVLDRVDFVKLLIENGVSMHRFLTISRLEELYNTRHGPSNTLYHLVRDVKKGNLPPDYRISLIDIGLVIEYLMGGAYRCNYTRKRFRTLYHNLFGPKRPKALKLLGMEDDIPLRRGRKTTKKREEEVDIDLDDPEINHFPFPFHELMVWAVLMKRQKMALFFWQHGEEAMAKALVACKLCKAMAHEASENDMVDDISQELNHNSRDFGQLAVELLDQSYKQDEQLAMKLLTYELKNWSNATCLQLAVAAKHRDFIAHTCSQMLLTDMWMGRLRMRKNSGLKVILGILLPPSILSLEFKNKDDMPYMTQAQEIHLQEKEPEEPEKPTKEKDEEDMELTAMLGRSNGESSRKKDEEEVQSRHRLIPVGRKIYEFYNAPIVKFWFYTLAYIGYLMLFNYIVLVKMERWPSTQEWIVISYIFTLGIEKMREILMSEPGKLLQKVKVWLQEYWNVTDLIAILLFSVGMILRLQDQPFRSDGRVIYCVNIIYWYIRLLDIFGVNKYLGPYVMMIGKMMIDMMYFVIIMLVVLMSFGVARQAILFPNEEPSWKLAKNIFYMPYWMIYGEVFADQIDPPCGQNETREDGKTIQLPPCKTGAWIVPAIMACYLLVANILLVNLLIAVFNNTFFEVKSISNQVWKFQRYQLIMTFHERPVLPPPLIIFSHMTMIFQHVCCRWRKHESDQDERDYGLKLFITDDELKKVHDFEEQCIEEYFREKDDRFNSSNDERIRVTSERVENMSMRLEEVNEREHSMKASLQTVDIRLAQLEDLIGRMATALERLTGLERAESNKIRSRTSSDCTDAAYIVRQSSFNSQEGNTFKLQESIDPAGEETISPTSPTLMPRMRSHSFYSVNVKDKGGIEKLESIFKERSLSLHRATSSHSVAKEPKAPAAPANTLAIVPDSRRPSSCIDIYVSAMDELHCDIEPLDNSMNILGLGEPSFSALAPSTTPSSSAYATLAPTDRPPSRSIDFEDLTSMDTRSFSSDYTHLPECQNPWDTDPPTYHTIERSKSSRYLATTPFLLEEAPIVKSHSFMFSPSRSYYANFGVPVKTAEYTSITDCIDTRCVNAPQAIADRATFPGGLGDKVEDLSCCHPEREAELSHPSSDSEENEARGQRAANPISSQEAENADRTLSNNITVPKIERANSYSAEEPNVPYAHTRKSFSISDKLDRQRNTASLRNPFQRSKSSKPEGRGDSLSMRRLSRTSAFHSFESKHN

In turn, `Cc1oc2ccc(OCC3CCC3)cc2c1C(=O)N[C@@H](CO)C(N)=O` [Cpd 006, (2S)-2-{[5-(cyclobutylmethoxy)-2-methyl-1-benzofuran-3-yl]formamido}-3-hydroxypropanamide] showed an IC50 of less than 1000 nM. Regarding `Cc1oc2ccc(OCC3CCC3)cc2c1C(=O)NC(C)(CO)C(N)=O` (single isomer, unassigned) [Cpd 053 - En2, 2-{[5-(cyclobutylmethoxy)-2-methyl-1-benzofuran-3-yl]formamido}-3-hydroxy-2-methylpropanamide], the IC50 is less than 1000 nM. The result for `Cc1oc2ccc(OCCC3CC3)cc2c1C(=O)N[C@@H](CO)C(N)=O` [Cpd 005, (2S)-2-{[5-(2-cyclopropylethoxy)-2-methyl-1-benzofuran-3-yl]formamido}-3-hydroxypropanamide] reads less than 1000 nM. Turning to `Cc1oc2ccc(OCC3CC3)cc2c1C(=O)NC1(CO)CCCNC1=O` (single isomer, unassigned) [Cpd 027 - En2, 5-(cyclopropylmethoxy)-N-[3-(hydroxymethyl)-2-oxopiperidin-3-yl]-2-methyl-1-benzofuran-3-carboxamide], the IC50 was 1000 to 20000 nM. The compound `Cc1oc2ccc(OCC3(C(F)F)CC3)cc2c1C(=O)NC(C)(CO)C(N)=O` (single isomer, unassigned) [Cpd 014 - En1, 2-[(5-{[1-(difluoromethyl)cyclopropyl]methoxy}-2-methyl-1-benzofuran-3-yl)formamido]-3-hydroxy-2-methylpropanamide] returned an IC50 of less than 1000 nM. `Cc1oc2ccc(OCC(F)F)cc2c1C(=O)NC1(C(N)=O)CCOC1` (single isomer, unassigned) [Cpd 044 - En2, N-(3-carbamoyloxolan-3-yl)-5-(2,2-difluoroethoxy)-2-methyl-1-benzofuran-3-carboxamide] came in with an IC50 of less than 1000 nM. As for `Cc1oc2ccc(OCC3CC3)cc2c1C(=O)NC1(CO)CCC1` [Cpd 025, 5-(cyclopropylmethoxy)-N-[1-(hydroxymethyl)cyclobutyl]-2-methyl-1-benzofuran-3-carboxamide], the IC50 was less than 1000 nM. For `Cc1oc2ccc(OCC3CC3(F)F)cc2c1C(=O)NC1CCNCC1(F)F` (single isomer, unassigned) [Cpd 031 - En2, 5-[(2,2-difluorocyclopropyl)methoxy]-N-(3,3-difluoropiperidin-4-yl)-2-methyl-1-benzofuran-3-carboxamide], the IC50 was less than 1000 nM.

For `Cc1oc2ccc(OCC3CC3)cc2c1C(=O)NC1CCOCC1` [Cpd 022, 5-(cyclopropylmethoxy)-2-methyl-N-(oxan-4-yl)-1-benzofuran-3-carboxamide], the IC50 was 1000 to 20000 nM. Under `Cc1oc2ccc(OCC3CC3(F)F)cc2c1C(=O)NC(CO)CC(F)(F)F` (single isomer, unassigned) [Cpd 057 - En4, 5-[(2,2-difluorocyclopropyl)methoxy]-2-methyl-N-(4,4,4-trifluoro-1-hydroxybutan-2-yl)-1-benzofuran-3-carboxamide] stands 1000 to 20000 nM; under `Cc1oc2ccc(OCC3CC3)cc2c1C(=O)NC1CCNCC1(F)F` (single isomer, unassigned) [Cpd 024-En2, 5-(cyclopropylmethoxy)-N-(3,3-difluoropiperidin-4-yl)-2-methyl-1-benzofuran-3-carboxamide], less than 1000 nM. The result for `Cc1oc2ccc(OCC3CC3)cc2c1C(=O)NC1CCCNC1=O` (single isomer, unassigned) [Cpd 055 - En2, 5-(cyclopropylmethoxy)-2-methyl-N-(2-oxopiperidin-3-yl)-1-benzofuran-3-carboxamide] reads 1000 to 20000 nM; that for `Cc1oc2ccc(OCC(F)F)cc2c1C(=O)N[C@@H](CO)C(N)=O` [Cpd 038, (2S)-2-{[5-(2,2-difluoroethoxy)-2-methyl-1-benzofuran-3-yl]formamido}-3-hydroxypropanamide], less than 1000 nM. The result for `Cc1oc2ccc(OCC3CC3)cc2c1C(=O)NC(C)(CO)CC(F)F` (single isomer, unassigned) [Cpd 046 - En2, 5-(cyclopropylmethoxy)-N-(4,4-difluoro-1-hydroxy-2-methylbutan-2-yl)-2-methyl-1-benzofuran-3-carboxamide] reads less than 1000 nM; that for `Cc1oc2ccc(OCC3CCCCC3)cc2c1C(=O)NC1CCN(C)CC1` [Cpd 020, 5-(cyclohexylmethoxy)-2-methyl-N-(1-methylpiperidin-4-yl)-1-benzofuran-3-carboxamide], more than 20000 nM; that for `Cc1oc2ccc(OCC3CC3)cc2c1C(=O)NC1(CO)CCCNC1=O` (single isomer, unassigned) [Cpd 027 - En1, 5-(cyclopropylmethoxy)-N-[3-(hydroxymethyl)-2-oxopiperidin-3-yl]-2-methyl-1-benzofuran-3-carboxamide], less than 1000 nM. For the compound `Cc1oc2ccc(OCC3CC3(C)C)cc2c1C(=O)NC1CCNCC1(F)F` (single isomer, unassigned) [Cpd 033-En3, N-(3,3-difluoropiperidin-4-yl)-5-[(2,2-dimethylcyclopropyl)methoxy]-2-methyl-1-benzofuran-3-carboxamide], the IC50 was less than 1000 nM. Under `Cc1oc2ccc(OCC3CC3)cc2c1C(=O)NC(C)(CO)CC(F)F` (single isomer, unassigned) [Cpd 046 - En1, 5-(cyclopropylmethoxy)-N-(4,4-difluoro-1-hydroxy-2-methylbutan-2-yl)-2-methyl-1-benzofuran-3-carboxamide] stands less than 1000 nM; under `NC(=O)[C@H](CO)NC(=O)c1c(C(F)F)oc2ccc(OCC3CC3)cc12` [Cpd 008, (2S)-2-{[5-(cyclopropylmethoxy)-2-(difluoromethyl)-1-benzofuran-3-yl]formamido}-3-hydroxypropanamide], less than 1000 nM; under `Cc1oc2ccc(OCC3CCCC3)cc2c1C(=O)NC(C)(CO)C(N)=O` (single isomer, unassigned) [Cpd 062 - En2, 2-{[5-(cyclopentylmethoxy)-2-methyl-1-benzofuran-3-yl]formamido}-3-hydroxy-2-methylpropanamide], less than 1000 nM.

In turn, `Cc1oc2ccc(OCC(C)C)cc2c1C(=O)NC1CCNCC1(F)F` (single isomer, unassigned) [Cpd 042 - En2, N-(3,3-difluoropiperidin-4-yl)-2-methyl-5-(2-methylpropoxy)-1-benzofuran-3-carboxamide] came in with an IC50 of less than 1000 nM. The result for `Cc1oc2ccc(OCC3(C)CC3)cc2c1C(=O)NC1CCNCC1(F)F` (single isomer, unassigned) [Cpd 032 - En2, N-(3,3-difluoropiperidin-4-yl)-2-methyl-5-[(1-methylcyclopropyl)methoxy]-1-benzofuran-3-carboxamide] reads 1000 to 20000 nM; that for `Cc1oc2ccc(OCC(C)(C)C)cc2c1C(=O)N[C@@H](CO)C(N)=O` [Cpd 039, (2S)-2-{[5-(2,2-dimethylpropoxy)-2-methyl-1-benzofuran-3-yl]formamido}-3-hydroxypropanamide], less than 1000 nM. Under `Cc1oc2ccc(OC[C@@H]3C[C@@H]4C[C@@H]4C3)cc2c1C(=O)NC(C)(CO)C(N)=O` (single isomer, unassigned) [Cpd 050 - En2, Cis-2-{[5-({bicyclo[3.1.0]hexan-3-yl}methoxy)-2-methyl-1-benzofuran-3-yl]formamido}-3-hydroxy-2-methylpropanamide] stands less than 1000 nM. In turn, `Cc1oc2ccc(OC[C@H]3C[C@H](C)C3)cc2c1C(=O)NC(C)(CO)C(N)=O` (single isomer, unassigned) [Cpd 059 - En1, Trans-3-hydroxy-2-methyl-2-({2-methyl-5-[(3-methylcyclobutyl)methoxy]-1-benzofuran-3-yl}formamido)propenamide] showed an IC50 of less than 1000 nM. As for `NC(=O)[C@H](CO)NC(=O)c1c(C2CC2)oc2ccc(OCC3CC3)cc12` [Cpd 004, (2S)-2-{[2-cyclopropyl-5-(cyclopropylmethoxy)-1-benzofuran-3-yl]formamido}-3-hydroxypropanamide], the IC50 is less than 1000 nM. The result for `Cc1oc2ccc(OCC3CC3)cc2c1C(=O)N[C@H](CO)C(N)=O` [Cpd 009, (2R)-2-{[5-(cyclopropylmethoxy)-2-methyl-1-benzofuran-3-yl]formamido}-3-hydroxypropanamide] reads less than 1000 nM. The result for `Cc1oc2ccc(OC[C@H]3C[C@@H]4C[C@@H]4C3)cc2c1C(=O)NC(C)(CO)C(N)=O` (single isomer, unassigned) [Cpd 051 - En2, Trans-2-{[5-({bicyclo[3.1.0]hexan-3-yl}methoxy)-2-methyl-1-benzofuran-3-yl]formamido}-3-hydroxy-2-methylpropanamide] reads less than 1000 nM; that for `Cc1oc2ccc(OCC3CC3)cc2c1C(=O)NC1CCNCC1(F)F` (single isomer, unassigned) [Cpd 024-En1, 5-(cyclopropylmethoxy)-N-(3,3-difluoropiperidin-4-yl)-2-methyl-1-benzofuran-3-carboxamide], 1000 to 20000 nM.

For orientation: IC50 means the concentration at which inhibition is half-maximal. High values mean weaker potency, low ones greater potency.
